Entries after “also recorded” stand apart in the source; their conditions may differ.
What was measured:
rats [1] = assay: Drug self-administration and water-reinforced responding in rats (earlier studies); format: in vivo, rat
Protocol: Other work has extended the “anti-addictive” effect of 18-MC to oral intake of ethanol. In all cases, these effects last for at least 24 hours. […] Unlike 18-MC, ibogaine and many other iboga alkaloid congeners (approximately 30 tested) decrease responding for water as well as for drugs. And it was precisely this unique specificity that led to development and study of 18-MC.

α3β4 nicotinic receptors = α3β4 nicotinic receptors (Homo sapiens, UniProt P30926+P32297); conditions: cited from earlier work
α3β4 nicotinic receptors, sequence (P32297 32-505): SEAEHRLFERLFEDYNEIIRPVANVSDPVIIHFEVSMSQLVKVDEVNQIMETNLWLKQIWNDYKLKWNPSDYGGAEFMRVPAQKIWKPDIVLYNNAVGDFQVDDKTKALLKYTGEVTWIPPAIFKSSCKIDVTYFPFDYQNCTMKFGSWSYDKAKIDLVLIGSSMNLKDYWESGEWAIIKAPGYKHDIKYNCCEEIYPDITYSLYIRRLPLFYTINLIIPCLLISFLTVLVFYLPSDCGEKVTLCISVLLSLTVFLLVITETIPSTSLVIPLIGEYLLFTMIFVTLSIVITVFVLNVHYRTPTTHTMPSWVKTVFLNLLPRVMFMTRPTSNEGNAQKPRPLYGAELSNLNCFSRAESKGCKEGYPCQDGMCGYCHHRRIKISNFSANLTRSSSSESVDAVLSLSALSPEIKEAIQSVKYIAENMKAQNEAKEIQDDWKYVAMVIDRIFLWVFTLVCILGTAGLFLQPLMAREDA
α3β4 nicotinic receptors, sequence (P30926 22-498): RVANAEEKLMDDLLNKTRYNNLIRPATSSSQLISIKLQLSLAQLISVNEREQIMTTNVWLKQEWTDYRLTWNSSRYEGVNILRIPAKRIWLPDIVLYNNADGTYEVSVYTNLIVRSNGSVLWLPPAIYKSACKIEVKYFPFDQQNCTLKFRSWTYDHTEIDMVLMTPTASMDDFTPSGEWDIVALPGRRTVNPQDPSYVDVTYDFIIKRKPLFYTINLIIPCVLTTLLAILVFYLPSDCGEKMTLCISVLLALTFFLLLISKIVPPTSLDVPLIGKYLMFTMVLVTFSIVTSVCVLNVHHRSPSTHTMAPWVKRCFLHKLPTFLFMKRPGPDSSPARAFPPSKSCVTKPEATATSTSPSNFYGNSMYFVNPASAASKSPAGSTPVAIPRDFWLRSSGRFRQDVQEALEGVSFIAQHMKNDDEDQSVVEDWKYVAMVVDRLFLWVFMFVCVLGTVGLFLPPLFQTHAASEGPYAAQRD

[2] = Weight gain of rats on high fat or low fat diet; format: in vivo, rat
Protocol: FIG. 12 is a graph showing effects of 18-MC (20 mg/kg i.p.) on weight gain of rats. Each data point represents daily weight (g, ±S.E.M.) of rats having access to high fat (HF) or low fat (LF) diet and water, and treated with 18-MC or vehicle. The black bar indicates the duration of treatment with 18-MC: =<0.05, 18-MC vs vehicle.
The development of obesity in rats maintained on a high fat diet is perhaps the commonly used animal model of diet-induced obesity.

[3] = Weight gain paradigm: water-drinking animals; format: in vivo, rat; conditions: 18-MC 20 mg/kg i.p. daily for two weeks
Protocol: Animals were allowed unlimited access to regular chow and water and were injected daily with 18-MC (20 mg/kg, i.p.) or vehicle for two weeks. Body weights were recorded immediately prior to injections and were also recorded for an additional week upon cessation of 18-MC treatment.
For the weight gain experiment, the data for all four treatment groups from days 1-21 were analyzed using two-way ANOVA, with treatment and time as main factors. Furthermore, the data for the first two weeks and the last week for water-vehicle, water-18-MC and sucrose 18-MC were analyzed separately using two-ANOVA, with treatment and time as main factors. Post-hoc comparison tests (Fisher LSD tests) were conducted when appropriate.

rats [4] = assay: Ad libitum sucrose intake over 24 hours (choice of sucrose or water); format: in vivo, rat
Protocol: FIG. 9 is a graph showing effects of 18-MC (10, 20, 40 mg/kg i.p.) on consumption of sucrose. Each bar represents mean 24 hour consumption of 5% sucrose solution expressed as percent of baseline (S.E.M.): *=p<0.05.
As described above, systemic 18-MC can decrease operant responding for sucrose and local administration of 18-MC into the dorsolateral tegmentum can also do so. These findings, which were unanticipated, led to investigation of the possibility that 18-MC might be useful in decreasing intake of sweet substances when available ad libitum along with normal rat chow. Rats offered a choice of drinking sucrose (15%) or water have strong preferences (70-80%) for sucrose. […] Whether 18-MC's effect on sucrose intake has a consequence in terms of body weight regulation was explored in a subsequent study. Rats given unlimited access to sucrose (30%) for two weeks gained excessive weight, consistent with other studies of sucrose-induced obesity. […] 18-MC had no effect on the body weight of “normal” rats having only water available.

Sprague-Dawley rats = assay: Palatable liquid consumption, two-bottle paradigm (19-h sessions); format: in vivo, rat; conditions: for water consumption: water/water control
Protocol: Naïve female Sprague-Dawley rats (230-270 g; Taconic, Germantown, N.Y.) were housed individually and maintained on a normal 12 hr light cycle (light on/off at 7 a.m./7 p.m.) in the colony room. For all experiments, food (normal chow) and water were provided ad libitum. The experiments were conducted in accordance with the “Guide for the Care and Use of Laboratory Animals” (National Academy of Sciences, 1996).
On the first day of the experiment, the regular cage tops were replaced with custom-made cage tops containing metal holders for two 100-ml graduated glass bottles (Lab Products Inc., Seaford, Del.); the bottles were placed approximately 2″ apart. Different groups of rats were allowed 19-h (3.30 p.m.-10.30 a.m.) unlimited access to water and 5% sucrose, water and 0.1% saccharine, water and 0.6% saline, or water and water. The concentrations were chosen in accordance with previous reports using similar two-bottle drinking paradigms. See Dess, N. K., Physiol Behav., 69: 247-257 (2000) and Warwick, Z. S. et al., Physiol Behav, 60: 711-715 (1996), which are hereby incorporated by reference in their entirety. The animals were maintained on a normal chow during these sessions. The bottles with palatable fluids were removed at the end of the 19-h sessions, but water and chow remained always available. The consumption of palatable fluids and water during the sessions were recorded on a daily basis for four consecutive sessions: two initial baseline sessions, one treatment session and one port-treatment session. The baseline consumption levels of fluids were established during the initial two sessions; immediately before the third session, animals were injected with 18-MC (10, 20, or 40 mg/kg i.p.) or vehicle. To account for possible side preferences of rats, the bottle sides were switched daily; animals expressing strong side preferences during the baseline sessions were excluded from further analysis. Each animal was used for four weeks, receiving three different dosages of 18-MC and vehicle in random order.
The average levels of fluid consumption (ml) during the first two sessions (baseline), as well as consumption during the post-injection session and the recovery session, were compared by two-way ANOVA using treatment and session as main factors; this analysis was followed by one-way ANOVAs for each treatment group and post-hoc tests when appropriate.

[5] = test system: morphine-experienced rats; conditions: cited from earlier work
rats [6] = conditions: systemic pretreatment; cited from earlier work
[7] = saccharin/water experiment, 10, 20 and 40 mg/kg i.p.
[8] = sucrose/water experiment, 10, 20 and 40 mg/kg i.p.

For `COCC[C@H]1CC2CN3CCc4c([nH]c5ccccc45)[C@](C(=O)OC)(C2)[C@H]13` [18-MC, 18-methoxycoronaridine], the “decrease of drug self-administration” value (rats [1]; 20 mg/kg, i.p., depending on the drug) was 40-80%, the motor effects (rats [1]; at times when self-administration is decreased) was “no motor effects” and the “duration of effects on drug self-administration” value (rats [1]; rat, in vivo) was “at least 24 hours”. The “effect on oral intake of ethanol” value (rats [1]; rat, in vivo, po) was “anti-addictive”, the “cocaine, methamphetamine and nicotine self-administration” value (rats [1]; rats) was “decreases” and the morphine self-administration (rats [1]; rats) was “dose-dependently decreases”. The “responding for water (non-drug reinforcer)” value (rats [1]; same doses that decrease drug self-administration) was “do not affect”, the “action at α3β4 nicotinic receptors” value (α3β4 nicotinic receptors) was “selective antagonist; also recorded: noncompetitive antagonist” and the “excessive weight gain attributable to the high fat diet” value ([2]; 18-MC 20 mg/kg i.p. daily for two weeks, 45 kcal % fat) was “totally prevented”. The “decrease of weights of fat depots in HF rats” value ([2]; 18-MC 20 mg/kg i.p. for two weeks, high fat diet) was “about 35%”, the “decrease of weights of fat depots in LF rats” value ([2]; 18-MC 20 mg/kg i.p. for two weeks, low fat diet (10 kcal % fat)) was “not in LF rats” and the “body weight of rats maintained on water and chow” value [3] was “no effect”. The “water intake over the 24 hours following administration” value (rats [4]; 18-MC 10-40 mg/kg i.p.) was “no significant effect”, the “intake of sucrose over the 24 hours following administration” value (rats [4]; 18-MC 10-40 mg/kg i.p., sucrose (15%) or water) was “decreased” and the “ceiling dose beyond which no further effect on ad libitum sucrose intake” value (rats [4]; dose range 10-40 mg/kg i.p.) was 10 mg/kg. For the same compound, the “saccharin intake, recovery session” value (Sprague-Dawley rats; 0.1% saccharin/water, 10 mg/kg i.p.) was “reduced intake”, the “saccharin intake, post-injection session vs baseline” value (Sprague-Dawley rats; 0.1% saccharin/water, 10, 20 and 40 mg/kg i.p.) was “significantly less” and the “saline consumption vs baseline” value (Sprague-Dawley rats; 0.6% saline/water, 10 mg/kg i.p.) was “remained unchanged”. The “saline consumption vs baseline” value (Sprague-Dawley rats; 0.6% saline/water, 20 and 40 mg/kg i.p., 19 h following injection) was “reduced”, the “effect on saline consumption, recovery session” value (Sprague-Dawley rats; 0.6% saline/water, highest dose (40 mg/kg i.p.)) was “also significant” and the “sucrose intake, recovery session” value (Sprague-Dawley rats; 5% sucrose/water, 10, 20 and 40 mg/kg i.p.) was “returned to baseline”. The “sucrose consumption, post-injection session vs baseline” value (Sprague-Dawley rats; 5% sucrose/water, 10, 20 and 40 mg/kg i.p., 19-h session) was “significantly reduced”, the “selectivity for reducing consumption of sucrose and saccharin relative to water” value (Sprague-Dawley rats; control water/water experiment vs two-bottle experiments) was “at least four-fold” and the “ceiling effect dose, consumption of sucrose and saccharin” value (Sprague-Dawley rats; dose range 10-40 mg/kg i.p.) was 10 mg/kg. For the same compound, the “ceiling effect dose, saline consumption” value (Sprague-Dawley rats; dose range 10-40 mg/kg i.p.) was 20 mg/kg, the “effect on total fluid consumption, recovery session” value (Sprague-Dawley rats; saccharin/water experiment, 10 mg/kg i.p.) was “remained significant” and the “total fluid consumption (FIG. 3C), 19 h after injection” value (Sprague-Dawley rats; [7]) was “reduced”. The “water consumption across sessions” value (Sprague-Dawley rats; [7]) was “not altered”, the total fluid consumption (Sprague-Dawley rats; saline/water experiment, 10 mg/kg i.p.) was “remained unchanged” and the “water consumption across sessions” value (Sprague-Dawley rats; saline/water experiment, 10, 20 and 40 mg/kg i.p.) was “not different across sessions”. The total fluid consumption (Sprague-Dawley rats; saline/water experiment, 20 and 40 mg/kg i.p.) was “significantly reduced”, the “effect on total fluid consumption, recovery session” value (Sprague-Dawley rats; saline/water experiment, highest dose (40 mg/kg i.p.)) was “also significant” and the “total fluid consumption, post-injection session vs baseline” value (Sprague-Dawley rats; [8]) was “reduced”. For the same compound, the “water consumption across sessions” value (Sprague-Dawley rats; [8]) was “remained stable”, the water consumption (Sprague-Dawley rats; 40 mg/kg i.p.) was “significantly reduced” and the water consumption (Sprague-Dawley rats; 10 and 20 mg/kg i.p.) was “remained unchanged”. For the same compound, the “sensitized morphine-induced dopamine release in the nucleus accumbens” value [5] was “attenuate” and the “intravenous self-administration of morphine and other drugs” value (rats [6]) was “reduce”.

Source: US8993559B2, “Use of ibogamine congeners for treating obesity” (Albany Medical College, priority 2008, dated 2015)
